Data from patent publication US20260256792A1, “TREATMENT OF CHRONIC SPONTANEOUS URTICARIA BY ADMINISTERING (R)-2-[3-[4-AMINO-3-(2-FLUORO-4-PHENOXY-PHENYL)PYRAZOLO[3,4-D]PYRIMIDIN-1-YL]PIPERIDINE-1-CARBONYL]-4-METHYL-4-[4-(OXETAN-3-YL)PIPERAZIN-1-YL]PENT-2-ENENITRILE” (priority 2023, published 2026).

System: angioedema in CSU patients
Experiment: Phase 2 CSU study: angioedema activity score over 7 days (AAS7)
Assay type: in vivo, human
Settings: 400 mg QPM; for AAS7 = 0, Non-responder n (%) / AAS7 = 0, OR (95% CI) for rilzabrutinib vs. placebo / AAS7 = 0, RRD (%) for rilzabrutinib vs. placebo (95% CI) / AAS7 Post-baseline Mean (SD) / Participants with AAS7 = 0, Responder n (%) / AAS7 % Change difference for rilzabrutinib vs. placebo LS Mean (95% CI) / AAS7 % Change from baseline LS Mean (SE) / AAS7 Change difference for rilzabrutinib vs. placebo LS Mean (95% CI) / AAS7 Change from baseline LS Mean (SE): angioedema at baseline; for Non-responder n (%), AAS7 = 0 / OR (95% CI) for rilzabrutinib vs. placebo, AAS7 = 0 / RRD (%) for rilzabrutinib vs. placebo (95% CI), AAS7 = 0 / Responder n (%), AAS7 = 0: outlier removed
Excerpt: The study comprises a 12 week, randomized, double-blind, placebo-controlled, multi-center, dose-ranging efficacy and safety phase, followed by a 40 week open label extension (OLE) phase (see FIG. 1). The study consists of three phases and an optional OLE phase. […] The weekly angioedema activity score (AAS7) was proposed as a tertiary endpoint. […] Patients were to complete the AAS using the e-diary. The e-diary was to be used once daily on the same time of each day recording of participant's answers to the angioedema activity score over 7 days (AAS7) questionnaire.

## CC(C)(C=C(C#N)C(=O)N1CCC[C@@H](n2nc(-c3ccc(Oc4ccccc4)cc3F)c3c(N)ncnc32)C1)N1CCN(C2COC2)CC1 [rilzabrutinib, (R)-2-[3-[4-amino-3-(2-fluoro-4-phenoxy-phenyl)pyrazolo[3,4-d]pyrimidin-1-yl]piperidine-1-carbonyl]-4-methyl-4-[4-(oxetan-3-yl)piperazin-1-yl]pent-2-enenitrile]
Week 4, omalizumab-naïve
  AAS7 = 0, Non-responder n (%): 21 (77.8) n (%)
  AAS7 = 0, OR (95% CI) for rilzabrutinib vs. placebo: 0.869
  AAS7 = 0, RRD (%) for rilzabrutinib vs. placebo (95% CI): −2.4 %
  AAS7 Post-baseline Mean (SD): 29.55 (20.68)
  Participants with AAS7 = 0, Responder n (%): 6 (22.2) n (%)
Week 5, ITT
  AAS7 % Change difference for rilzabrutinib vs. placebo LS Mean (95% CI): −0.88 (−26.37, 24.61) %
  AAS7 % Change from baseline LS Mean (SE): −54.71 (9.56) %
  AAS7 Change difference for rilzabrutinib vs. placebo LS Mean (95% CI): 1.56 (−9.31, 12.42)
  AAS7 Change from baseline LS Mean (SE): −28.04 (4.08)
  AAS7 Post-baseline Mean (SD): 25.01 (22.48)
Week 5, omalizumab-naïve
  Non-responder n (%), AAS7 = 0: 21 (56.8) n (%)
  OR (95% CI) for rilzabrutinib vs. placebo, AAS7 = 0: 0.872
  RRD (%) for rilzabrutinib vs. placebo (95% CI), AAS7 = 0: −3.4 %
  Responder n (%), AAS7 = 0: 16 (43.2) n (%)
  AAS7 % Change difference for rilzabrutinib vs. placebo LS Mean (95% CI): −1.04 (−28.01, 25.93) %
  AAS7 % Change from baseline LS Mean (SE): −55.66 (9.83) %
  AAS7 = 0, Non-responder n (%): 19 (70.4) n (%)
  AAS7 = 0, OR (95% CI) for rilzabrutinib vs. placebo: 1.079
  AAS7 = 0, RRD (%) for rilzabrutinib vs. placebo (95% CI): 1.6 %
  AAS7 Post-baseline Mean (SD): 24.55 (22.80)
  Participants with AAS7 = 0, Responder n (%): 8 (29.6) n (%)
Week 6, ITT
  AAS7 % Change difference for rilzabrutinib vs. placebo LS Mean (95% CI): 1.19 (−25.36, 27.75) %
  AAS7 % Change from baseline LS Mean (SE): −46.12 (9.92) %
  AAS7 Change from baseline LS Mean (SE): −25.61 (4.32)
  AAS7 Post-baseline Mean (SD): 27.97 (22.56)
Week 6, omalizumab-naïve
  Non-responder n (%), AAS7 = 0: 24 (64.9) n (%)
  OR (95% CI) for rilzabrutinib vs. placebo, AAS7 = 0: 0.606
  RRD (%) for rilzabrutinib vs. placebo (95% CI), AAS7 = 0: −11.4 %
  Responder n (%), AAS7 = 0: 13 (35.1) n (%)
  AAS7 % Change difference for rilzabrutinib vs. placebo LS Mean (95% CI): 2.62 (−26.14, 31.38) %
  AAS7 = 0, Non-responder n (%): 23 (85.2) n (%)
  AAS7 = 0, OR (95% CI) for rilzabrutinib vs. placebo: 0.437
  AAS7 = 0, RRD (%) for rilzabrutinib vs. placebo (95% CI): −13.0 %
  AAS7 Post-baseline Mean (SD): 28.26 (23.00)
  Participants with AAS7 = 0, Responder n (%): 4 (14.8) n (%)
Week 7, ITT
  AAS7 % Change difference for rilzabrutinib vs. placebo LS Mean (95% CI): 16.32 (−13.52, 46.16) %
  AAS7 Change difference for rilzabrutinib vs. placebo LS Mean (95% CI): 4.35 (−7.06, 15.76)
  AAS7 Change from baseline LS Mean (SE): −22.95 (4.29)
  AAS7 Post-baseline Mean (SD): 31.05 (21.43)
Week 7, omalizumab-naïve
  Non-responder n (%), AAS7 = 0: 24 (64.9) n (%)
  OR (95% CI) for rilzabrutinib vs. placebo, AAS7 = 0: 0.611
  RRD (%) for rilzabrutinib vs. placebo (95% CI), AAS7 = 0: −11.8 %
  Responder n (%), AAS7 = 0: 13 (35.1) n (%)
  AAS7 % Change difference for rilzabrutinib vs. placebo LS Mean (95% CI): 19.61 (−12.44, 51.65) %
  AAS7 = 0, OR (95% CI) for rilzabrutinib vs. placebo: 0.200
  AAS7 = 0, RRD (%) for rilzabrutinib vs. placebo (95% CI): −23.0 %
  AAS7 Post-baseline Mean (SD): 31.88 (21.51)
Week 8, ITT
  AAS7 % Change difference for rilzabrutinib vs. placebo LS Mean (95% CI): −2.51 (−32.23, 27.22) %
  AAS7 Change difference for rilzabrutinib vs. placebo LS Mean (95% CI): −1.74 (−12.55, 9.06)
  AAS7 Change from baseline LS Mean (SE): −30.07 (4.07)
  AAS7 Post-baseline Mean (SD): 24.69 (22.82)
Week 8, omalizumab-naïve
  Non-responder n (%), AAS7 = 0: 20 (54.1) n (%)
  OR (95% CI) for rilzabrutinib vs. placebo, AAS7 = 0: 1.185
  RRD (%) for rilzabrutinib vs. placebo (95% CI), AAS7 = 0: 4.2 %
  Responder n (%), AAS7 = 0: 17 (45.9) n (%)
  AAS7 % Change difference for rilzabrutinib vs. placebo LS Mean (95% CI): −4.14 (−36.36, 28.09) %
  AAS7 = 0, Non-responder n (%): 20 (74.1) n (%)
  AAS7 = 0, OR (95% CI) for rilzabrutinib vs. placebo: 0.929
  AAS7 = 0, RRD (%) for rilzabrutinib vs. placebo (95% CI): −1.3 %
